Several values for one entry are separate records, joined by “and”; a condition that tells them apart may be missing. Equal entries are not always repeated. Entries after “also recorded” stand apart in the source; their conditions may differ.
Legend:
μ-opioid receptors = test system: μ-opioid receptors; set-up: method as in PMID 27192616; conditions: cited from earlier work
α-glucosidase [1] = molecular target: T1, α-glucosidase (Saccharomyces cerevisiae, UniProt P53341); assay: α-glucosidase inhibition and kinetics, pNPG substrate; format: biochemical; conditions: Lineweaver–Burk plots
Method: The assay was performed as described previously with some modifications. The kinetic parameters (Michaelis–Menten constant; Km and maximum velocity; Vmax) of α-glucosidase were determined by using p-nitrophenol-α-D-glucopyranoside (pNPG) as a substrate. Briefly, 0.1 unit of α-glucosidase (Sigma-Aldrich, St Louis, MO, USA) were incubated at 37 °C with 100 µL of total reaction. After 10 min, the reactions were started by adding 50 µL pNPG (Sigma-Aldrich, St Louis, MO, USA, lot number 3698310) ranging from 0 to 15 mM, and the p-nitrophenol product was measured at 405 nm using a microplate reader (Multiskan SkyHigh, Thermo Scientific, Göteborg, Sweden). The substrate concentration rates were plotted against pNPG concentrations and fitted to the Michaelis–Menten equation.
The IC50 was determined by comparing the rate of each test inhibitor concentration to that of the vehicle control (ethanol), and the IC50 was calculated by plotting the remaining activity of each inhibitor concentration to the log test inhibitor concentration. […] After co-incubation with each inhibitor for 5 min at 37 °C, the reactions were initiated by adding the p-NPG substrate (0–15 mM). The inhibition constant (Ki) values were determined from Lineweaver–Burk Plots.

α-glucosidase [2] = molecular target: T1, α-glucosidase; assay: combination of kratom extracts or mitragynine with acarbose on α-glucosidase; format: biochemical
Method: After 10 min, the residual reactions were started by the addition of 50 µL of 0.3 mM pNPG. The reactions were left to proceed for 10 min. The absorption at 405 nm was then measured using a microplate reader, and IC50 values were calculated by GraphPad Prism version 9.3.1.

pancreatic lipase = molecular target: T2, pancreatic lipase (Sus scrofa, UniProt P00591); assay: pancreatic lipase inhibition and kinetics, 4MUO substrate; format: biochemical; conditions: for Pancreatic Lipase mode of inhibition: Lineweaver–Burk plots
T2 construct: purchased Sigma-Aldrich
T2 sequence (P00591 1-450): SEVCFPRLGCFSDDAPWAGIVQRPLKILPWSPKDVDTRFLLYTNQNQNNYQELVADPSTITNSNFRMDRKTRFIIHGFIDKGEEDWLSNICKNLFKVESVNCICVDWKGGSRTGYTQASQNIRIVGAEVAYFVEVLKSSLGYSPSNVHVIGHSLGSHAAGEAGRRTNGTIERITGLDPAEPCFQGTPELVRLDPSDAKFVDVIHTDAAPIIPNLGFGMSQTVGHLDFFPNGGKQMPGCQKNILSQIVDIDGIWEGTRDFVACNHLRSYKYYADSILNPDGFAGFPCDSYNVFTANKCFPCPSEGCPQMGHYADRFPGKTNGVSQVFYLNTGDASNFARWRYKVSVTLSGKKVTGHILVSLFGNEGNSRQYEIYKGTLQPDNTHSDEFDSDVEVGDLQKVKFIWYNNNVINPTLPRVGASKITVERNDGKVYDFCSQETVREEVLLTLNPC
Method: The kinetic parameters (Km and Vmax) of pancreatic lipase were determined using 4-methylumbelliferyl oleate (4MUO) as the substrate (Sigma-Aldrich, St Louis, MO, USA, Lot number BCCF8781). Briefly, 0.5 units of lipase (Sigma-Aldrich, St Louis, MO, USA, Lot number SLCG8579) were incubated in 96-well plates with a total volume of 100 µL (15 mM Tris-HCl buffer, pH 8.0) at 37 °C for 10 min. The reactions were initiated by adding 50 µL of 4MUO ranging from 0 to 5 mM. […] The rates at which substrate concentrations were plotted against 4MUO concentrations and fitted to the Michaelis–Menten equation. […] After 10 min, the reactions were started by adding 0.35 mM 4MUO. The reaction rates were monitored by measuring the release of 4MU from 4MUO. […] The remaining activity of lipase was determined by comparing the rate of each test inhibitor concentration to the vehicle control (ethanol), and IC50 was calculated by plotting the remaining activity of each inhibitor concentration to the log test inhibitor concentration.

lipase = test system: lipase; set-up: method as in PMID 29292744; conditions: therapeutic oral dose of 120 mg three times per day; cited from earlier work

T1 sequence (P53341 whole entry): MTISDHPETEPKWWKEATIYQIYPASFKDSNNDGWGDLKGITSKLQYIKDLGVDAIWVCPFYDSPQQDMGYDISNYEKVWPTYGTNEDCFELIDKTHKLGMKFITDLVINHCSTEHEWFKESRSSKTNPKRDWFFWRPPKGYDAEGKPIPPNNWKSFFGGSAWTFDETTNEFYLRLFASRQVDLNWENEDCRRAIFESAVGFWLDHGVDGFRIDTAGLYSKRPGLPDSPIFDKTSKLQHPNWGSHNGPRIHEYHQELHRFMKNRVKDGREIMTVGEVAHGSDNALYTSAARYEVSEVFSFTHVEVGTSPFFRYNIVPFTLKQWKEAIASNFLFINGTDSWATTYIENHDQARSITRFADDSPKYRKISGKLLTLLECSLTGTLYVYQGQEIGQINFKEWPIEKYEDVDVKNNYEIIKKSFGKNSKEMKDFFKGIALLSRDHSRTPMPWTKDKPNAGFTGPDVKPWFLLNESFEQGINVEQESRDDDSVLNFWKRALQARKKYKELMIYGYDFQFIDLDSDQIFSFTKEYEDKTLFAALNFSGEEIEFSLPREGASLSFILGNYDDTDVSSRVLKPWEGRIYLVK

## CC[C@@H]1CN2CC[C@@]3(O)C(=Nc4cccc(OC)c43)[C@@H]2C[C@@H]1/C(=C\OC)C(=O)OC [7-hydroxymitragynine]
μ-opioid receptors
  analgesic activity, fold higher than that of mitragynine: 16 fold

## C[C@H]1O[C@H](O[C@H]2[C@H](O)[C@@H](O)[C@@H](O[C@H]3[C@H](O)[C@@H](O)C(O)O[C@@H]3CO)O[C@@H]2CO)[C@H](O)[C@@H](O)[C@@H]1N[C@H]1C=C(CO)[C@@H](O)[C@H](O)[C@H]1O (stereo partly shown) [Acarbose, reference compound]
α-glucosidase [1]
  α-Glucosidase mode of inhibition: mixed-type
α-glucosidase [1]; listed as acarbose
  α-Glucosidase mode of inhibition: mixed-type inhibition mode

## CC[C@@H]1CN2CCc3c([nH]c4cccc(OC)c34)[C@@H]2C[C@@H]1/C(=C\OC)C(=O)OC [Mitragynine]
α-glucosidase [2]; mitragynine 100 µM with acarbose
  potency of combination with acarbose compared with kratom extract combinations: less potency than that of kratom extracts
α-glucosidase [2]; mitragynine 200 and 300 µM with acarbose
  IC50 of combination with acarbose compared with kratom extract combinations: decreased IC50 values compared with that of mixed kratom extracts
α-glucosidase [2]; mitragynine combined with acarbose
  interaction with acarbose in α-glucosidase inhibition: synergistic interaction; also recorded: synergistic effect
Pancreatic lipase
  pancreatic lipase IC50, fold higher than that of orlistat: 30 fold
  Pancreatic Lipase mode of inhibition: competitive
Pancreatic lipase; 0.35 mM 4MUO, 37 °C, mean ± SD, n = 3
  IC50: 24.9 µM and 24.7 µM
Pancreatic lipase; listed as mitragynine
  Pancreatic Lipase mode of inhibition: competitive inhibitors; also recorded: competitive mode
Pancreatic lipase; from Lineweaver–Burk plots, 4MUO substrate
  Ki: 14.9 µM
α-glucosidase [1]
  α-Glucosidase mode of inhibition: noncompetitive
α-glucosidase [1]; listed as mitragynine
  α-Glucosidase mode of inhibition: noncompetitive inhibitor; also recorded: noncompetitive mode

## CCCCCCCCCCC[C@@H](C[C@@H]1OC(=O)[C@H]1CCCCCC)OC(=O)[C@H](CC(C)C)NC=O [Orlistat, reference compound]
Pancreatic lipase
  Pancreatic Lipase mode of inhibition: competitive
Pancreatic lipase; listed as orlistat
  Pancreatic Lipase mode of inhibition: competitive inhibitors; also recorded: competitive mode
lipase
  reduction of dietary fat absorption: one-third

From article PMC9572452, “Inhibition of α-Glucosidase and Pancreatic Lipase Properties of Mitragyna speciosa (Korth.) Havil. (Kratom) Leaves” (Nutrients, 2022)
